Measured values taken from publication PMC11056994, “Potentiating Activity of GmhA Inhibitors on Gram-Negative Bacteria” (Journal of Medicinal Chemistry, 2024).
Like-named read-outs stand apart in the source and are kept apart here.

Columns and labels:
Type in all cases: cell-based
[1] = system: E. coli C7; test: MIC of the compounds alone on E. coli C7; conditions: compound alone, n = 2, read-out: MIC E. coli C7
Experimental: Then, we investigated the cytotoxicity and the ability of such inhibitors to potentiate the antimicrobial activity of macrolide and rifamycin antibiotics.
(§1) The compound to be tested was diluted in 50 mM HEPES buffer (pH 7.4) from 10 mM stock solution in DMSO. Five microliters of compound dilution or buffer were distributed in a sterile clear round-bottom 96-well polystyrene microplate (Corning). Five microliters of serial 2-fold dilutions of reference antibiotics [Erythromycin (Fluka), Rifampicin (Fluka)] in DMSO were added. An exponentially growing preculture of E. coli C7 (O18:K1:H7) in LB was diluted to 10^4 cfu/mL and supplemented with 100 μM G6P, and 90 μL of this suspension were added to the microplates. After overnight incubation at 37 °C, the MIC of the antibiotics were determined for each test compound concentration as the lowest antibiotic concentration for which no bacterial pellet is visible without magnification.

[2] = system: E. coli S1 LPS heptosylation; test: LPS heptosylation inhibition in clinical isolate E. coli S1; conditions: Escherichia coli; E. coli S1, ESBL; 100 μM glucose-6-phosphate; n = 1
Experimental: (§2) Compound 17 was also tested against clinical isolates of E. coli,[…], and K. pneumoniae for its ability to block LPS heptosylation (EC50). As detailed in Table 3, 17 in the presence of the UhpT inducer glucose-6-phosphate (100 μM) is a specific inhibitor of LPS heptosylation against various strains, including multiresistant clinical isolates expressing ESBL, AmpC, or NDM-1.
(§3) The compounds to be tested were prepared in deionized water/DMSO (50/50) solutions and added (25 μL) in sterile culture microtubes. The test bacterial isolate was isolated on tryptic soy agar (TSA) overnight. Isolated colonies were cultured in 10 mL of LB medium at 37 °C up to an OD of typically 0.15. These exponentially growing bacteria were finally diluted to 5 × 10^5 cfu/mL and added in each well (225 μL) for incubation with the compounds at 37 °C for approximately 5 h, up to an OD of ≈0.2–0.4. Some test compounds, e.g., phospho-sugars are actively transported into the bacterial cytosol via the phospho-sugar transporter UhpT (Figure S3). […] The resulting supernatant, containing LPS, was finally analyzed by SDS-PAGE electrophoresis. […] Gels were finally washed in deionized water, numerized with a Samsung PL51 camera, and analyzed by ImageJ software. […]

[3] = system: E. coli C7 (O18:K1:H7); test: Time-kill kinetics of rifampicin in combination with compound 17
Experimental: Rifampicin (Fluka) was diluted in DMSO, and the compound to be tested was diluted in water from 50 mM stock solution in 50 mM HEPES buffer, pH 7.4. Ten microliter of DMSO was distributed in sterile 1.5 mL polypropylene microtubes (Eppendorf). 2.5 μL of compound dilution or water, 2.5 μL of Rifampicin or DMSO, 2.5 μL of 10 mM G6P in water (100 μM final concentration), and 230 μL of LB were added to the microtubes. E. coli C7 (O18:K1:H7) was grown in 5 mL of LB broth at 37 °C until mid-log phase. The suspension was then diluted in LB to obtain a 100× inoculum of 5 × 10^7 cfu/mL, 2.5 μL of which were added to each microtube (5 × 10^5 cfu/mL final inoculum). The microtubes were incubated at 37 °C, and aliquots of 10 μL were sampled at 0, 2, 4, 6, 8, and 24 h for bacterial enumeration in duplicate.

[4] = system: E. coli C7 (018:K1:H7) LPS biosynthesis; test: Inhibition of bacterial LPS biosynthesis (silver-stained LPS SDS-PAGE); conditions: Escherichia coli; E. coli C7 LPS biosynthesis by SDS-PAGE; mean ± SD of 3 experiments for 17 and 24, n = 1 for others; read-out: EC50
Experimental: The compounds to be tested were prepared in deionized water/DMSO (50/50) solutions and added (25 μL) in sterile culture microtubes. The test bacterial isolate was isolated on tryptic soy agar (TSA) overnight. Isolated colonies were cultured in 10 mL of LB medium at 37 °C up to an OD of typically 0.15. These exponentially growing bacteria were finally diluted to 5 × 10^5 cfu/mL and added in each well (225 μL) for incubation with the compounds at 37 °C for approximately 5 h, up to an OD of ≈0.2–0.4. Some test compounds, e.g., phospho-sugars are actively transported into the bacterial cytosol via the phospho-sugar transporter UhpT (Figure S3). 2.5 μL portion of a 10 mM water solution of glucose-6-phosphate (G6P, 100 μM final concentration, from Sigma) was added in the culture tube in order to induce UhpT expression. LPS extraction: Bacterial cultures were normalized via OD determination, pelleted, and washed with 1 mL of phosphate-buffered-saline (PBS). The pellets were then denatured for 10 min at 95–100 °C in 50 μL of 0.2% sodium dodecyl sulfate (SDS), β-mercaptoethanol 1%, glycerol 36%, Tris 30 mM, pH 7.4, and bromophenol blue 0.001%. Samples were cooled down to room temperature, supplemented with 1.5 μL of proteinase K at 20 mg/mL, incubated for 1 h at 55 °C, and centrifuged for 30 min at 13,000 rpm at 25 °C. The resulting supernatant, containing LPS, was finally analyzed by SDS-PAGE electrophoresis. LPS SDS-PAGE electrophoresis: Polyacrylamide gels (16%/4% acrylamide for separation and concentration, respectively) were prepared, loaded with 8 μL of LPS extracts, and migrated. Silver staining: Gels were incubated overnight in 5% acetic acid/40% ethanol/deionized water, treated by 1% periodic acid/5% acetic acid for 15 min, washed 4 times for 10 min in deionized water, and finally incubated for 18 min in the dark in a silver nitrate solution composed of 56 mL of 0.1 M NaOH (56 mL), 33% aq ammonia (4 mL), 5% AgNO3 (45 mL), and deionized water (195 mL). Gels were then washed extensively in deionized water for 30 min and incubated for 10–15 min (up to LPS band appearance) in the revelation mix composed of 300 mL of deionized water (300 mL), 36.5% formaldehyde (0.3 mL, Fluka), and 2.3 M citric acid (0.1 mL). The revelation was stopped by incubating the gels in 10% acetic acid for 5 min. Gels were finally washed in deionized water, numerized with a Samsung PL51 camera, and analyzed by ImageJ software. The percentage of inhibition of LPS heptosylation was defined as the relative area of the Re-LPS band compared to the cumulated areas of Re-LPS and Core-LPS bands.

[5] = HepG2 cytotoxicity; conditions: human, HepG2 cells; n = 2
Experimental: HepG2 cells (LGC Promochem, ref HB-8065) in EMEM medium supplemented with fetal bovine serum (10%), Ampicillin (100 mg/L), and Streptomycin (100 mg/L) were plated on cell culture plates (Costar 3596, 2 × 10^4 cells/well) and incubated overnight at 37 °C in 5% CO2. The culture medium was then aspirated and replaced by supplemented EMEM (210 μL including 2% DMSO) containing dilutions of compounds. Plates were incubated overnight at 37 °C in 5% CO2. Cell viability was determined by the Celltiter Aqueous One Cell Proliferation Assay (G3581–80, Promega) according to the manufacturer’s recommendations, using a Multiskan absorption reader (490 nm).

[6] = system: K. pneumoniae S3 LPS heptosylation; test: LPS heptosylation inhibition in clinical isolate K. pneumoniae S3; conditions: Klebsiella pneumoniae, read-out: EC50 of LPS heptosylation
Experimental: as §2, §3

[7] = system: E. coli C7 (O18:K1:H7); test: MIC determination of antibiotics combined with a GmhA inhibitor; conditions: 17 at 27 mg/L (100 μM), glucose-6-phosphate 100 μM, E. coli C7
Experimental: as §1

[8] = system: E. cloacae S2 LPS heptosylation; test: LPS heptosylation inhibition in clinical isolate E. cloacae S2; conditions: Enterobacter cloacae; E. cloacae S2, AmpC; 100 μM glucose-6-phosphate; n = 1
Experimental: as §2, §3

## O=CN(O)C[C@H](O)[C@H](O)[C@H](O)COP(=O)(O)O [Compound 17]
[1]; Escherichia coli, C7
  MIC: > 1000 µM
[1]
  MIC: >1000 µM
[2]
  EC50: 21 µM
[3]; 17 300 μM alone or rifampicin 1 mg/L alone
  effect on bacterial growth, compound alone: did not alter at all the bacterial growth
[3]; 17 (300 μM) combined with rifampicin (1 mg/L), 24 h
  bacterial counts at 24 h: no detectable counts
[3]; 17 (300 μM) combined with rifampicin (1 mg/L), in less than 6 h
  reduction of the bacterial inoculum: more than 3 log
[4]
  EC50: 20 ± 3 µM
[5]
  CC50: > 1000 µM
[6]
  EC50: 21 µM
[7]
  potentiation of erythromycin: 32 fold
  potentiation of rifampicin: 16 fold
[8]
  EC50: 18 µM
